Laboratory results from ChEMBL document CHEMBL5257125, “Discovery of pyrido[4,3-d]pyrimidinone derivatives as novel Wee1 inhibitors” (Bioorg Med Chem, 2023).
Values belong to the compound of their own block, whether it stands above or below them.

Experiments:
Wee1-like protein kinase [1] = target: T1, Wee1-like protein kinase (Homo sapiens, UniProt P30291); test: Inhibition of recombinant human Wee1 (214 to end residues) incubated for 1 hr in presence of tracer 178 by fluorescence based assay
Target sequence in this assay (P30291 whole entry): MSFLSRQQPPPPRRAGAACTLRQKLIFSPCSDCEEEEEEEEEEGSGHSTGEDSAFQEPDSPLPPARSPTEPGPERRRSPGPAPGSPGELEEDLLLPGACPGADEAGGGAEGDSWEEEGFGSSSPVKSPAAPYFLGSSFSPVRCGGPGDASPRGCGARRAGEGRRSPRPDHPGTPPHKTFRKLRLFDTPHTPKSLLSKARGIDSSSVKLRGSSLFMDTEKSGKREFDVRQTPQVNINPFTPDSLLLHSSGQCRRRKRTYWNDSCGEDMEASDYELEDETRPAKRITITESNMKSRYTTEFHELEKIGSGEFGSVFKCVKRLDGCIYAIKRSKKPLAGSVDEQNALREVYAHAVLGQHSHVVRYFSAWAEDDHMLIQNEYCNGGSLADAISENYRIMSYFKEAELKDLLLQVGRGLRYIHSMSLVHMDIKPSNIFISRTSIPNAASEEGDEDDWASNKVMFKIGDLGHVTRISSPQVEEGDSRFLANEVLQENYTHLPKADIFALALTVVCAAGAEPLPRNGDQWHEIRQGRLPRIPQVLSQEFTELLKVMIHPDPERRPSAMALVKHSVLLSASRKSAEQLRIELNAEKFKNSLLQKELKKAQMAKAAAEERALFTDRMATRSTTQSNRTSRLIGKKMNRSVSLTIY

MV4-11 [2] = test: Antiproliferative activity against human MV4-11 cells incubated for 72 hrs by Celltiter-glo assay; assay type: functional, cell-based; details: MV4-11, 72 h
T47D = test: Antiproliferative activity against human T47D cells incubated for 72 hrs by Celltiter-glo assay; assay type: functional, cell-based
[3] = Metabolic stability in mouse liver microsomes assessed as parent compound remaining preincubated with NADPH for 5 mins followed by compound addition and measured upto 90 mins by LC-MS/MS analysis; assay type: ADME, Microsome; details: read-out: Stability
MV4-11 [4] = test: Induction of apoptosis in human MV4-11 cells assessed as late apoptotic cells at 3200 nM after 48 hrs by Annexin V FITC/PI staining based flow cytometry analysis (reference value: 4.07%); assay type: functional
MV4-11 [5] = test: Induction of apoptosis in human MV4-11 cells assessed as necrotic cells at 1600 nM after 48 hrs by Annexin V FITC/PI staining based flow cytometry analysis (reference value: 0.00968%); assay type: functional
Wee1-like protein kinase [6] = target: T1, Wee1-like protein kinase; test: Inhibition of Wee1 in human MV4-11 cells assessed as reduction in phosphorylation of CDK1-Y15 incubated for 24 hrs by Western blot analysis; assay type: cell-based; details: dose 0.01-5 µM
Target sequence in this assay (P30291 whole entry, looked up): as the sequence (P30291 whole entry) above

MV4-11 [7] = test: Induction of apoptosis in human MV4-11 cells assessed as early apoptotic cells at 200 nM after 48 hrs by Annexin V FITC/PI staining based flow cytometry analysis (reference value: 9.33%); assay type: functional
MV4-11 [8] = test: Induction of apoptosis in human MV4-11 cells assessed as early apoptotic cells at 800 nM after 48 hrs by Annexin V FITC/PI staining based flow cytometry analysis (reference value: 9.33%); assay type: functional
MV4-11 [9] = test: Induction of apoptosis in human MV4-11 cells assessed as necrotic cells at 200 nM after 48 hrs by Annexin V FITC/PI staining based flow cytometry analysis (reference value: 0.00968%); assay type: functional
MV4-11 [10] = test: Induction of apoptosis in human MV4-11 cells assessed as late apoptotic cells at 1600 nM after 48 hrs by Annexin V FITC/PI staining based flow cytometry analysis (reference value: 4.07%); assay type: functional
MV4-11 [11] = test: Induction of apoptosis in human MV4-11 cells assessed as viable cells at 200 nM after 48 hrs by Annexin V FITC/PI staining based flow cytometry analysis (reference value: 86.6%); assay type: functional; details: read-out: Activity
MV4-11 [12] = test: Induction of apoptosis in human MV4-11 cells assessed as early apoptotic cells at 1600 nM after 48 hrs by Annexin V FITC/PI staining based flow cytometry analysis (reference value: 9.33%); assay type: functional
MV4-11 [13] = test: Induction of apoptosis in human MV4-11 cells assessed as early apoptotic cells at 400 nM after 48 hrs by Annexin V FITC/PI staining based flow cytometry analysis (reference value: 9.33%); assay type: functional
MV4-11 [14] = test: Induction of DNA damage in human MV4-11 cells assessed as increase in gamma-H2AX expression incubated for 24 hrs by Western blot analysis; assay type: functional, cell-based; details: dose 0.05-0.2 µM
MV4-11 [15] = test: Induction of apoptosis in human MV4-11 cells assessed as late apoptotic cells at 200 nM after 48 hrs by Annexin V FITC/PI staining based flow cytometry analysis (reference value: 4.07%); assay type: functional
MV4-11 [16] = test: Induction of apoptosis in human MV4-11 cells assessed as late apoptotic cells at 800 nM after 48 hrs by Annexin V FITC/PI staining based flow cytometry analysis (reference value: 4.07%); assay type: functional
MV4-11 [17] = test: Induction of apoptosis in human MV4-11 cells assessed as viable cells at 800 nM after 48 hrs by Annexin V FITC/PI staining based flow cytometry analysis (reference value: 86.6%); assay type: functional; details: read-out: Activity
MV4-11 [18] = test: Induction of apoptosis in human MV4-11 cells assessed as early apoptotic cells at 3200 nM after 48 hrs by Annexin V FITC/PI staining based flow cytometry analysis (reference value: 9.33%); assay type: functional
MV4-11 [19] = test: Induction of apoptosis in human MV4-11 cells assessed as viable cells at 400 nM after 48 hrs by Annexin V FITC/PI staining based flow cytometry analysis (reference value: 86.6%); assay type: functional; details: read-out: Activity
MV4-11 [20] = test: Induction of cell cycle arrest in human MV4-11 cells assessed as accumulation of cells at G0/G1 phase at 800 nM incubated for 24 hrs by flow cytometry analysis; assay type: functional
MV4-11 [21] = test: Induction of apoptosis in human MV4-11 cells assessed as late apoptotic cells at 400 nM after 48 hrs by Annexin V FITC/PI staining based flow cytometry analysis (reference value: 4.07%); assay type: functional
MV4-11 [22] = test: Induction of apoptosis in human MV4-11 cells assessed as necrotic cells at 3200 nM after 48 hrs by Annexin V FITC/PI staining based flow cytometry analysis (reference value: 0.00968%); assay type: functional
MV4-11 [23] = test: Induction of apoptosis in human MV4-11 cells assessed as viable cells at 1600 nM after 48 hrs by Annexin V FITC/PI staining based flow cytometry analysis (reference value: 86.6%); assay type: functional; details: read-out: Activity
MV4-11 [24] = test: Induction of apoptosis in human MV4-11 cells assessed as viable cells at 3200 nM after 48 hrs by Annexin V FITC/PI staining based flow cytometry analysis (reference value: 86.6%); assay type: functional; details: read-out: Activity
MV4-11 [25] = test: Induction of apoptosis in human MV4-11 cells assessed as necrotic cells at 400 nM after 48 hrs by Annexin V FITC/PI staining based flow cytometry analysis (reference value: 0.00968%); assay type: functional
MV4-11 [26] = test: Induction of apoptosis in human MV4-11 cells assessed as necrotic cells at 800 nM after 48 hrs by Annexin V FITC/PI staining based flow cytometry analysis (reference value: 0.00968%); assay type: functional

IC50 (Wee1-like protein kinase [1]): 0.078 µM
SMILES: Cc1cccc(Cl)c1-n1cnc2cc(Nc3ccc(N4CCN(C)CC4)cc3)ncc2c1=O

IC50 (MV4-11 [2]): 1.22 µM
IC50 (T47D): 10.5 µM
IC50 (Wee1-like protein kinase [1]): 0.052 µM
SMILES: CN(C)CCOc1ccc(Nc2cc3ncn(-c4c(Cl)cccc4Cl)c(=O)c3cn2)cc1

remaining at 1.5 h [3]: > 50%
IC50 (MV4-11 [2]): 0.863 µM
IC50 (T47D): 4.23 µM
IC50 (Wee1-like protein kinase [1]): 0.048 µM
SMILES: O=c1c2cnc(Nc3ccc(N4CCNCC4)cc3)cc2ncn1-c1c(Cl)cccc1Cl

IC50 (MV4-11 [2]): 2.47 µM
IC50 (T47D): > 20 µM
IC50 (Wee1-like protein kinase [1]): 0.077 µM
SMILES: O=c1c2cnc(Nc3ccc(NC4CCNCC4)cc3)cc2ncn1-c1c(Cl)cccc1Cl

IC50 (Wee1-like protein kinase [1]): 0.107 µM
SMILES: C[C@@H]1CN(c2ccc(Nc3cc4ncn(-c5c(Cl)cccc5Cl)c(=O)c4cn3)cc2CNC2CC2)C[C@H](C)N1

IC50 (Wee1-like protein kinase [1]): 0.055 µM
SMILES: NCC1CCN(c2ccc(Nc3cc4ncn(-c5c(Cl)cccc5Cl)c(=O)c4cn3)cc2)CC1

IC50 (Wee1-like protein kinase [1]): 0.096 µM
SMILES: O=c1c2cnc(Nc3ccc(N4CCC(O)CC4)cc3)cc2ncn1-c1c(Cl)cccc1Cl

IC50 (Wee1-like protein kinase [1]): 0.052 µM
SMILES: COc1cc(Nc2cc3ncn(-c4c(Cl)cccc4Cl)c(=O)c3cn2)ccc1N1C[C@@H](C)N[C@@H](C)C1

IC50 (Wee1-like protein kinase [1]): 0.036 µM
SMILES: N[C@@H]1CCCN(c2ccc(Nc3cc4ncn(-c5c(Cl)cccc5Cl)c(=O)c4cn3)cc2)C1

IC50 (Wee1-like protein kinase [1]): 0.124 µM
SMILES: CN1CCN(Cc2ccc(Nc3cc4ncn(-c5c(Cl)cccc5Cl)c(=O)c4cn3)cc2)CC1

IC50 (Wee1-like protein kinase [1]): 0.093 µM
SMILES: CN1CCC(Oc2ccc(Nc3cc4ncn(-c5c(Cl)cccc5Cl)c(=O)c4cn3)cc2)CC1

IC50 (Wee1-like protein kinase [1]): 0.268 µM
SMILES: CN1CCN(c2ccc(Nc3cc4ncn(-c5c(F)cccc5Cl)c(=O)c4cn3)cc2)CC1

inhibition (Wee1-like protein kinase [6]): Dose-Dependent Effect
remaining at 1.5 h [3]: 60%
IC50 (MV4-11 [2]): 0.763 µM
IC50 (T47D): 4.64 µM
IC50 (Wee1-like protein kinase [1]): 0.021 µM
SMILES: CC(=O)Nc1cc(Nc2cc3ncn(-c4c(Cl)cccc4Cl)c(=O)c3cn2)ccc1N1C[C@@H](C)N[C@@H](C)C1
Activity (MV4-11 [4]): 12%
Activity (MV4-11 [5]): 0.048%
Activity (MV4-11 [7]): 12%
Activity (MV4-11 [8]): 12.2%
Activity (MV4-11 [9]): 0.00954%
Activity (MV4-11 [10]): 5.11%
viability at 0.2 µM (MV4-11 [11]): 84.7%
Activity (MV4-11 [12]): 12.4%
Activity (MV4-11 [13]): 10.4%
Activity (MV4-11 [14]): Dose-Dependent Effect
Activity (MV4-11 [15]): 3.34%
Activity (MV4-11 [16]): 0.12%
viability at 0.8 µM (MV4-11 [17]): 81.7%
Activity (MV4-11 [18]): 21.3%
viability at 0.4 µM (MV4-11 [19]): 84.5%
Activity (MV4-11 [20]): 63%
Activity (MV4-11 [21]): 5.09%
Activity (MV4-11 [22]): 0.01%
viability at 1.6 µM (MV4-11 [23]): 82.4%
viability at 3.2 µM (MV4-11 [24]): 66.7%
Activity (MV4-11 [25]): 0.02%
Activity (MV4-11 [26]): 0.029%

IC50 (Wee1-like protein kinase [1]): 0.097 µM
SMILES: O=c1c2cnc(Nc3ccc(N4CCN(C5CC5)CC4)cc3)cc2ncn1-c1c(Cl)cccc1Cl

remaining at 1.5 h [3]: 60%
IC50 (MV4-11 [2]): 0.66 µM
IC50 (T47D): 9.6 µM
IC50 (Wee1-like protein kinase [1]): 0.07 µM
SMILES: CN(C)CCN(C)c1ccc(Nc2cc3ncn(-c4c(Cl)cccc4Cl)c(=O)c3cn2)cc1

IC50 (Wee1-like protein kinase [1]): 0.192 µM
SMILES: C[C@@H]1CN(c2ccc(Nc3cc4ncn(-c5c(Cl)cccc5Cl)c(=O)c4cn3)cc2C(F)(F)F)C[C@H](C)N1

IC50 (Wee1-like protein kinase [1]): 0.163 µM
SMILES: C[C@@H]1CN(c2ccc(Nc3cc4ncn(-c5c(Cl)cccc5Cl)c(=O)c4cn3)cc2C#N)C[C@H](C)N1

IC50 (MV4-11 [2]): 2.05 µM
IC50 (T47D): 13.7 µM
IC50 (Wee1-like protein kinase [1]): 0.043 µM
SMILES: O=c1c2cnc(Nc3ccc(N4CCN(CCO)CC4)cc3)cc2ncn1-c1c(Cl)cccc1Cl

IC50 (Wee1-like protein kinase [1]): 0.515 µM
SMILES: O=c1c2cnc(Nc3ccc(N4CCC(CO)CC4)cc3)cc2ncn1-c1c(Cl)cccc1Cl

IC50 (MV4-11 [2]): 1.76 µM
IC50 (T47D): 19.2 µM
IC50 (Wee1-like protein kinase [1]): 0.035 µM
SMILES: CN1CCC(Nc2ccc(Nc3cc4ncn(-c5c(Cl)cccc5Cl)c(=O)c4cn3)cc2)CC1
